Data published in patent US20180282279A1, “Pantothenamide Analogues” (Radboud Universitair Medisch Centrum, priority 2014, published 2018).
In brackets after ≈: the same amount, converted by molar mass. Read-outs that look alike come from different tables or passages of the source.

Assays:
Streptococcus pneumoniae = test: MIC determination, S. pneumoniae; assay type: cell-based; conditions: for MIC: Streptococcus pneumoniae
Protocol: Streptococcus pneumoniae strains were grown to mid-log phase (OD620 of 0.3) and stored in 15% glycerol at […] till further use. Minimal inhibitory concentration (MIC) of antibiotics was determined according to standard procedures. Bacteria were diluted 10-fold in Mueller-Hinton medium (BD, Sparks, Md.) and added to 96-well sterile ELISA plates (150 μl per well). The compounds to be tested were diluted in the medium without serum and added to the bacteria (150 μl per well). Plates were incubated overnight at 37° C. in 5% CO2. The MIC was defined as the lowest concentration of compound at which no growth was visible with the naked eye.

Staphylococcus aureus = test: Bacterial growth assay and MIC determination, S. aureus; assay type: cell-based; conditions: for antibiotic activity when tested in the presence of serum: 10% serum
Protocol: (§1) Strains of Escherichia coli, Staphylococcus aureus and Staphylococcus epidermidis, were grown overnight in 1% Bacto tryptone medium (BD, Sparks, Md.). Streptococcus pyogenes was grown overnight in Bacto Todd Hewitt Broth medium (BD, Sparks, Md.). Cultures were then diluted 1:1,000 in fresh assay medium supplemented with or without 20% fetal bovine serum (FBS; HyClone, Celbio, Logan, Utah) and added to 96-well sterile enzyme-linked immunosorbent assay (ELISA) plates (100 μl per well). The compounds to be tested were diluted in the medium without serum and added to the bacteria (100 μl per well). Plates were incubated at 37° C., and bacterial growth was monitored over time by reading the optical density at 490 nm using a microplate reader (model 450; Bio-Rad Laboratories Inc., Hercules, Calif.). Streptococcus pneumoniae strains were grown to mid-log phase (OD620 of 0.3) and stored in 15% glycerol at […] till further use. Minimal inhibitory concentration (MIC) of antibiotics was determined according to standard procedures. Bacteria were diluted 10-fold in Mueller-Hinton medium (BD, Sparks, Md.) and added to 96-well sterile ELISA plates (150 μl per well). The compounds to be tested were diluted in the medium without serum and added to the bacteria (150 μl per well). Plates were incubated overnight at 37° C. in 5% CO2. The MIC was defined as the lowest concentration of compound at which no growth was visible with the naked eye.

Escherichia coli = test: Bacterial growth assay and MIC determination, E. coli; assay type: cell-based; conditions: serum −
Protocol: as §1

Streptococcus pyogenes = test: Bacterial growth assay and MIC determination, S. pyogenes; assay type: cell-based
Protocol: as §1

[1] = tested on: Staphylococcus epidermidis; test: Bacterial growth assay and MIC determination, S. epidermidis; assay type: cell-based
Protocol: as §1

[2] = tested on: Plasmodium falciparum NF54 parasites; test: P. falciparum asexual blood stage replication assay (SYBR Green); assay type: cell-based; conditions: NF54, 10% human serum, 72 incubation
Protocol: Compounds were tested on their ability to inhibit replication of the human malaria parasite Plasmodium falciparum. To this end, Plasmodium falciparum NF54 parasites were cultured in RPMI1640 medium supplemented with 367 μM hypoxanthine, 25 mM HEPES, 25 mM sodiumbicarbonate and 10% human type A serum in an automated large-scale culture system as described before (Transactions of the Royal Society of Tropical Medicine and Hygiene, 1982. 76: p. 812-818). Compounds were diluted in DMSO and subsequently in culture medium to reach a DMSO concentration of 0.2%. 50 μl of diluted compound was transferred to a black 96 well plate. A culture of P. falciparum strain NF54 malaria parasites was diluted to a parasitaemia of 0.5% and a hematocrit of 3%. 50 μl of this diluted culture was added to each well in the 96 well plate._The outermost wells of the plate were filled with sterile water to prevent evaporation. The established antimalarial dihydroartemisinin (DHA) in DMSO acted as a positive control (MIN signal), and 0.1% DMSO acted as a negative control (MAX signal). The plates were incubated for 72 at 37° C., 3% 02, 5% CO2, 93% N2. Changes in parasite replication relative to the controls were monitored using the DNA-marker SYBR Green as described previously (Antimicrob Agents Chemother 48:1803-6). Data were analyzed by logistic regression using the formula: Y=Bottom+(Top-Bottom)/(1+10̂((Log IC50−X)*HillSlope)) and a least squares method to find the best fit.
Using similar methods, IC50 values were determined for a variety of inverted pantothenamides, as listed in table 1 (see section: ‘Detailed description of the invention’)

[3] = Pharmacokinetic study in rats; assay type: in vivo
Protocol: To address the question if increased stability would also lead to improved bioavailability in vivo, a pharmacokinetic study was performed. Briefly, the pantothenamides N5-Pan (an antibacterial compound) and CXP18.3-002 (an antimalarial compound), and their corresponding inverted amides CXP18.6-013 and CXP18.6-006 were administered to rats at 50 mg/kg dissolved in saline. Blood samples were collected from 3 rats before the experiment and at 0.25, 0.5, 1, 2, 4, 6, 8, 12 and 24 h. The concentrations of the compounds were analyzed by LC-MS/MS (AB Sciex API-4000 system). Data were analyzed by the Non-compartmental analysis tool of Phoenix WinNonlin (Version 6.3).

[4] = tested on: P. falciparum gametocytes; test: Gametocyte female gametogenesis capacity assay (Pfs25 AlphaLISA); assay type: cell-based; conditions: Plasmodium falciparum; 72 hours incubation, Table 3; read-out: Gametocyte gametogenesis capacity (Pfs25) IC50
Protocol: To monitor compound effects on the ability of a gametocyte to form a female gamete, day 11 (stage IV) gametocytes were seeded at a density of 4×10^5 gametocytes per well in a V-bottom plate in 50 μl culture medium. 50 μl of diluted compound was added to the gametocytes (0.1% DMSO final concentration) and plates were incubated for 72 hours at 37° C., 98% humidity, 93% N2, 4% CO2 and 3% O2. Subsequently, gametogenesis was induced by adding xanthurenic acid to a final concentration of 40 μM and plates were incubated for 16 hours at 20° C. Gametes were detected in a homogeneous proximity immunoassay on basis of Pfs25 expression by use of AlphaLISA technology (Perkin Elmer). All steps were performed at 20° C. Gametes were washed twice with PBS, lysed for 15 min in 10 μl 10 mM Tris pH 8.0/1% laurylsarcosyl/1 mM phenylmethanesulfonyl fluoride and combined with 10 μl 5 nM biotinylated mouse anti-Pfs25 monoclonal antibody 32F6244 in a white 384 well optiplate (Perkin Elmer). After 1 hour incubation 15 μl of 33 μg/ml acceptorbeads coated with mouse anti-Pfs25 monoclonal antibody 32F81 were added. After 1 hour incubation, 15 μl 33 μg/ml Streptavidin-conjugated donorbeads were added. Finally, after 1 hour incubation luminescence signals were monitored at the 615 nm emission wavelength following excitation at 680 nm using a fluorometer (Biotek Synergy 2). All compounds were tested in duplicate (24 hr) or triplicate (1 and 72 hr). Controls included MIN (0.1 μM epoxomicin) and MAX (0.1% DMSO). Data were analyzed by logistic regression using the formula: Y=Bottom+(Top−Bottom)/(1+10̂((Log IC50−X)*HillSlope)) and a least squares method to find the best fit.

[5] = tested on: P. falciparum gametocytes; test: microbe, parasite or virus in culture; assay type: cell-based, Plasmodium falciparum; conditions: Plasmodium falciparum; 72 hour incubation; read-out: Gametocyte viability (pLDH) IC50
Protocol: Compounds were tested for their ability to affect the viability of gametocytes, the sexually committed blood stages of P. falciparum that underlie transmission to the mosquito vector. To this end, two different assays were performed. The first assay monitored pLDH activity as a measure of viability of gametocytes (J Antimicrob Chemother. 2013 September; 68(9):2048-58). The second assay monitored the ability of gametocytes to form a female gamete by detection of the gamete-specific marker Pfs25. Plasmodium falciparum NF54 parasites were cultured in RPMI1640 medium supplemented with 367 μM hypoxanthine, 25 mM HEPES, 25 mM sodiumbicarbonate and 10% human type A serum in an automated large-scale culture system as described before (Transactions of the Royal Society of Tropical Medicine and Hygiene, 1982. 76: p. 812-818). Cultures were treated with 50 mM N-acetyl-D-glucosamine from day 4 till day 9 to kill asexual parasites. On day 11 gametocytes were isolated by discontinuous 63% Percoll gradient centrifugation. Compounds were diluted in DMSO and subsequently in culture medium to reach a DMSO concentration of 0.2%. To measure the effect of compounds of pLDH activity, gametocytes were seeded at a density of 3.5×10^4 gametocytes per well in a black 384 well plate in 30 μl of culture medium, and 30 μl of diluted compound was added. Following a 72 hour incubation at 37° C., 98% humidity, 93% N2, 4% CO2 and 3% O2, gametocyte viability was measured by a modified plasmodium lactate dehydrogenase assay by using resazurin as a substrate as previously described (Nature, 2013. 504(7479): p. 248-53). Assays were performed in quadruplicate (two different plates with two different gametocyte batches) and all plates included controls MIN (1 μM DHA), MAX (0.1% DMSO) and a serial dilution of reference compound dihydroartemisinin (DHA).

[6] = S. pneumoniae, serum −, read-out: MIC
[7] = Staphylococcus aureus, S. aureus, serum + (10% serum), read-out: MIC
[8] = Staphylococcus aureus, S. aureus, serum −, read-out: MIC
[9] = Staphylococcus aureus, Table 1, most sensitive species S. aureus (SA), read-out: MIC (μg/ml) for most sensitive bacterial species
[10] = Escherichia coli, read-out: MIC
[11] = Streptococcus pyogenes, S. pyogenes, serum −, read-out: MIC
[12] = Staphylococcus epidermidis, S. epidermidis, serum −, read-out: MIC
[13] = rat, blood, 50 mg/kg in saline, oral administration
[14] = Staphylococcus epidermidis, Table 1, most sensitive species S. epidermidis (SE), read-out: MIC (μg/ml) for most sensitive bacterial species
[15] = Streptococcus pyogenes, Table 1, most sensitive species S. pyogenes (SP), read-out: MIC (μg/ml) for most sensitive bacterial species

Row | Structure (SMILES) | MIC (Streptococcus pneumoniae; [6]) | MIC (Staphylococcus aureus; [7]) | MIC (Staphylococcus aureus; [8]) | MIC (Escherichia coli; [10]) | MIC (Streptococcus pyogenes; [11]) | MIC [1, 12] | IC50 [2] | MIC [1, 14] | IC50 [4] | IC50 [5] | other results
1 | CCCCCCCC(=O)NCCNC(=O)[C@H](O)C(C)(C)CO [CXP18.6-012] | > 32 µg/mL | 4 µg/mL | 1 µg/mL (≈ 3.16 µM) | > 256 µg/mL | 32 µg/mL (≈ 101 µM) | 16 µg/mL (≈ 50.6 µM) | 0.34 µM |  |  |  | activity of inverted pantothenamide compared to the parent compound (Streptococcus pneumoniae; S. pneumoniae): loss of activity; antibiotic activity when tested in the presence of serum (Staphylococcus aureus; S. aureus): retained activity; MIC (Staphylococcus aureus; [9]): 1 µg/mL (≈ 3.16 µM)
2 | CCCCCC(=O)NCCNC(=O)[C@H](O)C(C)(C)CO [CXP18.6-013] | 4 µg/mL (≈ 13.9 µM) |  | 32 µg/mL (≈ 111 µM) | > 256 µg/mL | 2 µg/mL (≈ 6.94 µM) | 1 µg/mL (≈ 3.47 µM) | 0.63 µM | 1 µg/mL (≈ 3.47 µM) |  |  | MIC (Streptococcus pneumoniae; Table 1, S. pneumoniae (SPn), read-out: MIC (μg/ml) for most sensitive bacterial species): 4 µg/mL (≈ 13.9 µM); AUC(0-inf) [3, 13]: 11600 ng·h/mL; Cmax [3, 13]: 12100 ng/mL; Tmax [3, 13]: 19.8 min; half-life ([3]; rat, blood, 50 mg/kg in saline, oral administration, elimination phase): 354 min; activity of inverted pantothenamide compared to the parent compound ([1]; S. epidermidis): gain of antimicrobial activity
3 | CCCCCCCCCC(=O)NCCNC(=O)[C@H](O)C(C)(C)CO [CXP18.6-014] | > 32 µg/mL | 1 µg/mL | 1 µg/mL (≈ 2.9 µM) | > 256 µg/mL | 32 µg/mL (≈ 92.9 µM) | 1 µg/mL (≈ 2.9 µM) | 7.5 µM | 1 µg/mL (≈ 2.9 µM) |  |  | antibiotic activity when tested in the presence of serum (Staphylococcus aureus; S. aureus): retained activity; MIC (Staphylococcus aureus; [9]): 1 µg/mL (≈ 2.9 µM)
4 | CC(C)(CO)[C@@H](O)C(=O)NCCNC(=O)CCc1ccsc1 [CXP18.6-046] |  |  |  |  |  |  | 0.057 µM |  | 401 nM | > 10 µM | MIC (Streptococcus pyogenes; [15]): 32 µg/mL (≈ 97.4 µM)
5 | CC(C)(CO)[C@@H](O)C(=O)NCCNC(=O)CCc1cccs1 [CXP18.6-047] |  |  |  |  |  |  | 0.1 µM |  | 168 nM | > 10 µM | MIC (Streptococcus pyogenes; [15]): 8 µg/mL (≈ 24.4 µM)
6 | Cc1ccc(CCC(=O)NCCNC(=O)[C@H](O)C(C)(C)CO)c(F)c1 [CXP18.6-064] |  |  |  |  |  |  | 0.042 µM | 2 µg/mL (≈ 5.64 µM) | 17 nM | 0.042 µM | 
7 | CCCCCNC(=O)CCNC(=O)[C@H](O)C(C)(C)CO [Compound N5-Pan, N-pentylpantothenamide, reference compound] | 0.25 µg/mL (≈ 0.867 µM) |  | 8 µg/mL (≈ 27.7 µM) | 64 µg/mL (≈ 222 µM) |  | 32 µg/mL (≈ 111 µM) |  |  |  |  | detection in blood following oral administration ([3]; 50 mg/kg): could not or hardly be detected
8 | CCCCCCCNC(=O)CCNC(=O)[C@H](O)C(C)(C)CO [Compound N7-Pan, N-heptylpantothenamide, reference compound] | 2 µg/mL (≈ 6.32 µM) | > 256 µg/mL | 0.5 µg/mL (≈ 1.58 µM) | 128 µg/mL (≈ 404 µM) | 2 µg/mL (≈ 6.32 µM) | 0.5 µg/mL (≈ 1.58 µM) |  |  |  |  | MIC (Staphylococcus aureus; S. aureus, serum + (10% serum)): >256 µg/mL
9 | CCCCCCCCCNC(=O)CCNC(=O)[C@H](O)C(C)(C)CO [Compound N9-Pan, reference compound] |  |  |  |  |  |  |  |  |  |  | MIC (Staphylococcus aureus; S. aureus, serum + (10% serum)): >256 µg/mL; MIC (Staphylococcus aureus; S. aureus, serum −): 0.5 µg/mL (≈ 1.45 µM); MIC (Escherichia coli): >256 µg/mL; MIC (Streptococcus pyogenes; S. pyogenes, serum −): 16 µg/mL (≈ 46.4 µM); MIC ([1]; S. epidermidis, serum −): 0.25 µg/mL (≈ 0.726 µM)
